This is an account of results in patent publication US20250041433A1, “PROTEIN-ANTIVIRAL COMPOUND CONJUGATES” (REGENERON PHARMACEUTICALS, INC., priority 2021, published 2025).

This experiment relates to H1N1 A/Puerto Rico/08/1934-GFP influenza virus. In words: organism not typed. It counts as cell-based, H1N1 A/Puerto Rico/08/1934 influenza virus. To be noted: for IC50: MDCK, 20 h, read-out: Antiviral activity of VX-787 free payloads IC50; for antiviral activity of VX-787 derivatives (in words): free payloads.

Each structure is given as a SMILES string.

One may read the IC50 as the concentration needed to halve the response being measured. Consider `O=C(NO)[C@H]1C2CCC(CC2)[C@@H]1Nc1nc(-c2c[nH]c3ncc(F)cc23)nc2sccc12` [Compound 20b], for which the IC50 amounted to 9.64 nM and the “antiviral activity of VX-787 derivatives (in words)” value (from here on “antiviral activity”) is “displayed antiviral activity”. In the case of `O=C(O)[C@H]1C2CCC(CC2)[C@@H]1Nc1nc(-c2c(CO)[nH]c3ncc(F)cc23)ncc1F` [Compound 15], the IC50 stood at 240 nM and the “antiviral activity” value was “displayed antiviral activity”. For the molecule `O=C(NO)[C@H]1C2CCC(CC2)[C@@H]1Nc1nc(-c2n[nH]c3ncc(F)cc23)ncc1F` [Compound 57], the half-inhibitory concentration (IC50) was 2 nM. As for `O=C(NO)[C@H]1C2CCC(CC2)[C@@H]1Nc1nc(-c2n[nH]c3ncc(F)cc23)nc2sccc12` [Compound 62], the half-inhibitory concentration (IC50) was found to be 2.19 nM. Take `O=C(NO)[C@H]1C2CCC(CC2)[C@@H]1Nc1nc(-c2c[nH]c3ncc(F)cc23)ncc1F` [Compound 20a]: the IC50 was 3.77 nM and the “antiviral activity” value is listed as “displayed antiviral activity”. For the molecule `Cn1ccc2c(N[C@H]3C4CCC(CC4)[C@@H]3C(=O)NO)nc(-c3c[nH]c4ncc(F)cc34)nc21` [Compound 20c], the IC50 was determined as 13.8 nM and the “antiviral activity” value was “displayed antiviral activity”.
